According to ChEMBL document CHEMBL1122563, “Design, synthesis, and X-ray data of novel potential antipsychotic agents. Substituted 7-phenylquinolizidines: stereospecific, neuroleptic, and antinociceptive properties” (J Med Chem, 1984):

Legend:
Mus musculus [1] = assay: Intraperitoneal dose inhibiting acetic acid induced writhing in 50% of mice; format: functional
[2] = Levels of homovanillic acid (HVA) in rat brain 2 hour after an intraperitoneal injection dose; format: ADME, tissue-based; settings: in vivo, ip
Rattus norvegicus [3] = species on record: Rattus norvegicus; assay: animal or person; settings: ip
Description: (§1) Intraperitoneal dose producing a block of avoidance response in 50% of the rats.

Mus musculus [4] = species on record: Mus musculus; assay: animal or person; format: functional; settings: in Rattus norvegicus, po, 8 h
Description: Peroral dose inhibiting acetic acid induced writhing 8 hr after administration in 50% of the rats.

Mus musculus [5] = species on record: Mus musculus; assay: animal or person; format: functional; settings: sc
Description: Subcutaneous dose at which 50% of the mouse start to lick their paws later than 10 s using hot plate assay.

Mus musculus [6] = species on record: Mus musculus; assay: animal or person; format: functional; settings: in Rattus norvegicus, sc, 8 h
Description: Subcutaneous dose inhibiting acetic acid induced writhing 8 hr after administration in 50% of the rats.

Mus musculus [7] = species on record: Mus musculus; assay: animal or person; format: functional; settings: in Rattus norvegicus, sc, 0.5 h
Description: Subcutaneous dose inhibiting acetic acid induced writhing 0.5 hr after administration in 50% of the rats.

Mus musculus [8] = species on record: Mus musculus; assay: animal or person; format: functional; settings: in Rattus norvegicus, po, 24 h
Description: Peroral dose inhibiting acetic acid induced writhing 24 hr after administration in 50% of the rats.

Mus musculus [9] = species on record: Mus musculus; assay: animal or person; format: functional; settings: po
Description: Peroral dose at which 50% of the mouse start to lick their paws later than 10 s using hot plate assay.

Mus musculus [10] = species on record: Mus musculus; assay: animal or person; format: functional; settings: in Rattus norvegicus, po, 1 h
Description: Peroral dose inhibiting acetic acid induced writhing 1 hr after administration in 50% of the rats.

Rattus norvegicus [11] = species on record: Rattus norvegicus; assay: dose producing 50% of the theoretically obtained maximum catalepsy in rats; format: functional
Rattus norvegicus [12] = species on record: Rattus norvegicus
Description: as §1

Mus musculus [13] = species on record: Mus musculus; assay: Dose at which 50% of the mouse show not more than one extension movement.; format: functional
[14] = Mus musculus, ip, read-out: ED50
[15] = Rattus norvegicus, read-out: ED50

| SMILES | HVA level [2] [%] | ED50 (Rattus norvegicus [3]) [mg/kg] | ED50 (Rattus norvegicus [11]; [15]) [mg/kg] | other results |
| --- | --- | --- | --- | --- |
| CC(C)(C)[C@@]1(O)CCN2C[C@H](c3ccccc3Cl)CC[C@@H]2C1.Cl (stereo in doubt; (+)-5g) |  |  |  | ED50 (Mus musculus [1]): >30 mg/kg |
| Cl.O[C@]1(c2ccccc2)CCN2C[C@@H](c3ccccc3Cl)CC[C@@H]2C1 | 99 | > 30 |  |  |
| CCCC[C@@]1(OC(C)=O)CCN2C[C@H](c3ccccc3)CC[C@H]2C1 |  |  |  | ED50 (Mus musculus [4]): 4.9 mg/kg; ED50 (Mus musculus [5]): 1.1 mg/kg; ED50 (Mus musculus [6]): 3.8 mg/kg; ED50 (Mus musculus [7]): 0.14 mg/kg; ED50 (Mus musculus [8]): 69 mg/kg |
| CCCC[C@@]1(O)CCN2C[C@H](c3ccccc3)CC[C@@H]2C1 (stereo in doubt; (+)-19) |  |  |  | ED50 (Mus musculus [1]; [14]): > 30 mg/kg |
| CN1CC[C@]23c4c5ccc(O)c4O[C@H]2[C@@H](O)C=C[C@H]3[C@H]1C5.Cl [MORPHINE HYDROCHLORIDE] |  |  |  | ED50 (Mus musculus [4]): 86 mg/kg; ED50 (Mus musculus [5]): 9.6 mg/kg; ED50 (Mus musculus [9]): 36 mg/kg; ED50 (Mus musculus [6]): 135 mg/kg; ED50 (Mus musculus [10]): 2.4 mg/kg; ED50 (Mus musculus [7]): 0.96 mg/kg; ED50 (Mus musculus [8]): > 550 mg/kg |
| CC(C)(C)[C@]1(O)CCN2C[C@@H](c3cccc(Cl)c3)CC[C@@H]2C1.Cl | 103 | > 30 | > 30 |  |
| CC(C)(C)[C@]1(O)CCN2C[C@@H](c3ccc(Cl)cc3Cl)CC[C@@H]2C1.Cl (stereo in doubt; 5e) | 557 |  |  | ED50 (Rattus norvegicus [11]): 12.2 mg/kg; ED50 (Rattus norvegicus [12]): 6.4 mg/kg |
| CC(C)(C)[C@]1(O)CCN2C[C@@H](c3ccc(Cl)c(Cl)c3)CC[C@@H]2C1.Cl | 190 | > 30 | 30 |  |
| CC(=O)O[C@@]1(C(C)(C)C)CCN2C[C@@H](c3ccc(Cl)cc3Cl)CC[C@@H]2C1.Cl |  |  |  | ED50 (Mus musculus [1]; [14]): 300 mg/kg |
| CC(=O)O[C@]1(C(C)(C)C)CCN2C[C@H](c3ccccc3Cl)CC[C@@H]2C1.Cl |  |  |  | ED50 (Mus musculus [1]; [14]): 28 mg/kg |
| CC(=O)O[C@@]1(C(C)(C)C)CCN2C[C@@H](c3ccccc3Cl)CC[C@@H]2C1.Cl (stereo in doubt; 23) |  |  |  | ED50 (Mus musculus [1]; [14]): 36 mg/kg |
| CC(=O)O[C@@]1(C(C)(C)C)CCN2C[C@@H](c3ccc(Cl)cc3)CC[C@@H]2C1.Cl |  |  |  | ED50 (Mus musculus [1]; [14]): 4 mg/kg |
| CC(=O)O[C@@]1(C(C)(C)C)CCN2C[C@@H](c3ccccc3Cl)CC[C@@H]2C1.Cl (stereo in doubt; (-)-23) |  |  |  | ED50 (Mus musculus [13]): > 30 mg/kg |
| Cl.O[C@@]1(c2ccccc2)CCN2C[C@@H](c3ccccc3Cl)CC[C@@H]2C1 | 340 | 7 | > 10 |  |
| CCCC[C@]1(OC(C)=O)CCN2C[C@H](c3ccccc3)CC[C@H]2C1 |  |  |  | ED50 (Mus musculus [5]): 100 mg/kg; ED50 (Mus musculus [9]): 551 mg/kg; ED50 (Mus musculus [10]): 10 mg/kg |
| CCCC[C@]1(O)CCN2C[C@@H](c3ccc(Cl)cc3Cl)CC[C@@H]2C1.Cl | 150 | 42 | > 10 |  |

| SMILES | HVA level [2] [%] | ED50 (Rattus norvegicus [3]) [mg/kg] | ED50 (Rattus norvegicus [11]; [15]) [mg/kg] | other results |
| --- | --- | --- | --- | --- |
| CC(C)(C)[C@]1(O)CCN2C[C@@H](c3ccc(Cl)cc3Cl)CC[C@@H]2C1.Cl (stereo in doubt; (-)-5e) | 350 |  |  | ED50 (Rattus norvegicus [11]): 4.4 mg/kg; ED50 (Rattus norvegicus [12]): 4.7 mg/kg |
| CC(=O)O[C@@]1(c2ccccc2)CCN2C[C@@H](c3ccccc3Cl)CC[C@@H]2C1.Cl |  |  |  | ED50 (Mus musculus [1]; [14]): 2.8 mg/kg |
| CC(C)(C)[C@@]1(O)CCN2C[C@H](c3ccccc3Cl)CC[C@@H]2C1.Cl (stereo in doubt; (-)-5g) |  |  |  | ED50 (Mus musculus [1]): >10 mg/kg |
| CC(C)[C@]1(O)CCN2C[C@@H](c3ccc(Cl)cc3Cl)CC[C@@H]2C1.Cl | 280 | 17.5 | 9.2 |  |
| CC(C)(C)[C@]1(O)CCN2C[C@@H](c3ccc(Cl)cc3)CC[C@@H]2C1.Cl | 290 | 13.5 | 16 |  |
| CCCC[C@@]1(OC(C)=O)CCN2C[C@@H](c3ccccc3)CC[C@@H]2C1.Cl |  |  |  | ED50 (Mus musculus [1]; [14]): > 100 mg/kg |
| CC(C)(C)[C@]1(O)CCN2C[C@@H](c3ccccc3)CC[C@@H]2C1.Cl | 308 | > 30 |  |  |
| CC(=O)O[C@@]1(C(C)(C)C)CCN2C[C@@H](c3ccccc3)CC[C@@H]2C1.Cl |  |  |  | ED50 (Mus musculus [1]; [14]): 2.6 mg/kg |
| CC[C@]1(O)CCN2C[C@@H](c3ccc(Cl)cc3Cl)CC[C@@H]2C1 | 284 | > 30 |  |  |
| CC(C)(C)[C@]1(O)CCN2C[C@@H](c3ccccc3Cl)CC[C@@H]2C1 | 449 | 10 | 20.2 |  |
| CC(C)(C)[C@]1(O)CCN2C[C@@H](c3c(Cl)cccc3Cl)CC[C@@H]2C1.Cl |  | > 30 | > 30 |  |
| CC(C)(C)[C@]1(O)CCN2C[C@@H](c3ccc(Cl)cc3Cl)CC[C@@H]2C1.Cl (stereo in doubt; (+)-5e) | 283 |  |  | ED50 (Rattus norvegicus [11]): 28.4 mg/kg; ED50 (Rattus norvegicus [12]): >30 mg/kg |
| CCC(C)[C@]1(O)CCN2C[C@@H](c3ccc(Cl)cc3Cl)CC[C@@H]2C1.Cl (some centres not stated) | 467 | 6.25 | 5.5 |  |
| CC(C)(C)[C@]1(O)CCN2C[C@@H](c3ccc(C(F)(F)F)cc3)CC[C@@H]2C1.Cl | 369 | 18.5 | > 30 |  |
| C[C@]1(O)CCN2C[C@@H](c3ccc(Cl)cc3Cl)CC[C@@H]2C1 | 157 | > 30 |  |  |
